The source of these data is US8658646B2, “Pyrrolopyrazine kinase inhibitors” (Hoffmann-LaRoche Inc., priority 2011, dated 2014).

SMILES strings stand for the structures. Where only a bound is given, the exact number is not on record here.

The assay addresses T1, recombinant human SYK360-635 (Homo sapiens, UniProt P43405).
T1 construct: made in house
The experiment in a line: Determination of IC50 of Spleen Tyrosine Kinase (SYK) inhibition, 33P ATP filtration assay. In kind it is biochemical. To be noted: SYK aa 360-635 0.5 nM; ATP 20 μM, peptide 5 μM, 0.1% BSA; read-out: SYK_ENZYME_FILTRATION/v1, BSA.

Turning to `Cn1nc(-c2cnc3[nH]cc(C(=O)N[C@@H]4CCC[C@@H](N)C4)c3n2)c2ccc(Cl)cc21` (relative stereo) [Example I-276, 2-(6-Chloro-1-methyl-1H-indazol-3-yl)-5H-pyrrolo[2,3-b]pyrazine-7-carboxylic acid (trans-3-amino-cyclohexyl)-amide], the IC50 was 16.4 nM. `CCn1nc(-c2cnc3[nH]cc(C(=O)NC(C)C)c3n2)c2ccc(Cl)cc21` [Example I-307, 2-(6-Chloro-1-ethyl-1H-indazol-3-yl)-5H-pyrrolo[2,3-b]pyrazine-7-carboxylic acid isopropylamide]: the IC50 worked out at 32.6 nM.

With `CC(C)(C)NC(=O)c1c[nH]c2ncc(-c3nn(CC4CC4)c4ccc(OC(F)F)cc34)nc12` [Example I-351, 2-(1-Cyclopropylmethyl-5-difluoromethoxy-1H-indazol-3-yl)-5H-pyrrolo[2,3-b]pyrazine-7-carboxylic acid tert-butylamide], the IC50 is 18.4 nM. In the case of `Cn1nc(-c2cnc3[nH]cc(C(=O)Nc4ccccc4)c3n2)c2ccc(Cl)cc21` [Example I-396, 2-(6-Chloro-1-methyl-1H-indazol-3-yl)-5H-pyrrolo[2,3-b]pyrazine-7-carboxylic acid phenylamide], the IC50 was more than 10000 nM. The figure for `CC(C)(C)NC(=O)c1c[nH]c2ncc(-n3ncc4ccc(Cl)cc43)nc12` [Example I-329, 2-(6-Chloro-indazol-1-yl)-5H-pyrrolo[2,3-b]pyrazine-7-carboxylic acid tert-butylamide] is 82.2 nM; for `Cn1nc(-c2cnc3[nH]cc(C(=O)NC(C)(C)C(C)(C)N)c3n2)c2ccc(F)cc21` [Example I-393, 2-(6-Fluoro-1-methyl-1H-indazol-3-yl]-5H-pyrrolo[2,3-b]pyrazine-7-carboxylic acid (2-amino-1,1,2-trimethyl-propyl)-amide] it is 492 nM. `Cn1nc(-c2cnc3[nH]cc(C(=O)NC4(C)CCCC4)c3n2)c2ccc(F)cc21` [Example I-384, 2-(6-Fluoro-1-methyl-1H-indazol-3-yl)-5H-pyrrolo[2,3-b]pyrazine-7-carboxylic acid (1-methyl-cyclopentyl)-amide]: the IC50 is 3.75 nM. The figure for `CC(C)NC(=O)c1c[nH]c2ncc(-c3nn(CCCN(C)C)c4ccc(OC(F)F)cc34)nc12` [Example I-450] is 13.3 nM; for `Cc1ccc2c(-c3cnc4[nH]cc(C(=O)NC(C)(C)CO)c4n3)nn(CCN3CCOCC3)c2c1` [Example I-445, 2-[6-Methyl-1-(2-morpholin-4-yl-ethyl)-1H-indazol-3-yl]-5H-pyrrolo[2,3-b]pyrazine-7-carboxylic acid (2-hydroxy-1,1-dimethyl-ethyl)-amide] it is 24.7 nM. On to `CN1CCN(C(=O)Cn2nc(-c3cnc4[nH]cc(C(=O)NC(C)(C)C)c4n3)c3cc(OC(F)F)ccc32)CC1` [Example I-353, 2-{5-Difluoromethoxy-1-[2-(4-methyl-piperazin-1-yl)-2-oxo-ethyl]-1H-indazol-3-yl}-5H-pyrrolo[2,3-b]pyrazine-7-carboxylic acid tert-butylamide], for which the IC50 stood at 56.3 nM. Turning to `CN1CCC(n2nc(-c3cnc4[nH]cc(C(=O)NC(C)(C)C)c4n3)c3cc(OC(F)F)ccc32)CC1` [Example I-263, 2-[5-Difluoromethoxy-1-(1-methyl-piperidin-4-yl)-1H-indazol-3-yl]-5H-pyrrolo[2,3-b]pyrazine-7-carboxylic acid tert-butylamide], the IC50 amounted to 14.4 nM. For `Cc1ccc2c(-c3cnc4[nH]cc(C(=O)NC5(CO)CC5)c4n3)nn(C)c2c1` [Example I-429, 2-(1,6-Dimethyl-1H-indazol-3-yl)-5H-pyrrolo[2,3-b]pyrazine-7-carboxylic acid (1-hydroxymethyl-cyclopropyl)-amide] the value was 12.5 nM; for `COC[C@H](C)NC(=O)c1c[nH]c2ncc(-c3nn(C)c4ccc(C5CC5)cc34)nc12` [Example I-194, 2-(5-Cyclopropyl-1-methyl-1H-indazol-3-yl)-5H-pyrrolo[2,3-b]pyrazine-7-carboxylic acid ((S)-2-methoxy-1-methyl-ethyl)-amide], 11.9 nM.

As to `CC(C)(C)NC(=O)c1c[nH]c2ncc(-n3ncc4ccc(C(F)(F)F)cc43)nc12` [Example I-330, 2-(6-Trifluoromethyl-indazol-1-yl)-5H-pyrrolo[2,3-b]pyrazine-7-carboxylic acid tert-butylamide], the IC50 stood at 988 nM. For `Cn1nc(-c2cnc3[nH]cc(C(=O)NC4(C#N)CC4)c3n2)c2ccc(F)cc21` [Example I-387, 2-(6-Fluoro-1-methyl-1H-indazol-3-yl)-5H-pyrrolo[2,3-b]pyrazine-7-carboxylic acid (1-cyano-cyclopropyl)-amide] the value was 31.7 nM. `CC(C)(C)NC(=O)c1c[nH]c2ncc(-n3nc(C(F)(F)F)c4c3CCC4)nc12` [Example I-334, 2-(3-Trifluoromethyl-5,6-dihydro-4H-cyclopentapyrazol-1-yl)-5H-pyrrolo[2,3-b]pyrazine-7-carboxylic acid tert-butylamide]: the IC50 was 1840 nM. In the case of `Cn1nc(-c2cnc3[nH]cc(C(=O)Nc4cccnc4)c3n2)c2ccc(Cl)cc21` [Example I-405, 2-(6-Chloro-1-methyl-1H-indazol-3-yl)-5H-pyrrolo[2,3-b]pyrazine-7-carboxylic acid pyridin-3-ylamide], the IC50 stood at 186 nM. Turning to `CC(C)NC(=O)c1c[nH]c2ncc(-c3nn(C)c4ccc(C(C)O)cc34)nc12` (centres unmarked) [Example I-269, 2-[5-(1-Hydroxy-ethyl)-1-methyl-1H-indazol-3-yl]-5H-pyrrolo[2,3-b]pyrazine-7-carboxylic acid isopropylamide], the IC50 was determined as 22.1 nM. As to `Cn1nc(-c2cnc3[nH]cc(C(=O)NC(C)(C)C)c3n2)c2ncccc21` [Example I-259, 2-(1-Methyl-1H-pyrazolo[4,3-b]pyridin-3-yl)-5H-pyrrolo[2,3-b]pyrazine-7-carboxylic acid tert-butylamide], the IC50 came to 42.9 nM.

On to `Cc1ccc2c(-c3cnc4[nH]cc(C(=O)NC(C)(C)CN(C)C)c4n3)n[nH]c2c1` [Example I-436, 2-(6-Methyl-1H-indazol-3-yl)-5H-pyrrolo[2,3-b]pyrazine-7-carboxylic acid (2-dimethylamino-1,1-dimethyl-ethyl)-amide], for which the IC50 was 47.9 nM.

For `Cc1ccc2c(-c3cnc4[nH]cc(C(=O)NC(C)(C)CO)c4n3)n[nH]c2c1` [Example I-434, 2-(6-Methyl-1H-indazol-3-yl)-5H-pyrrolo[2,3-b]pyrazine-7-carboxylic acid (2-hydroxy-1,1-dimethyl-ethyl)-amide], the IC50 came out at 4.6 nM.

In the case of `CC(C)(C)NC(=O)c1c[nH]c2ncc(-c3nn(CC4CNC4)c4ccc(OC(F)F)cc34)nc12` [Example I-350, 2-(1-Azetidin-3-ylmethyl-5-difluoromethoxy-1H-indazol-3-yl)-5H-pyrrolo[2,3-b]pyrazine-7-carboxylic acid tert-butylamide], the IC50 came to 5.98 nM. Regarding `Cn1c2c(c(-c3cnc4[nH]cc(C(=O)NC(C)(C)C)c4n3)[n+]1[O-])CCCC2` [Example I-294, 2-(1-Methyl-2-oxy-4,5,6,7-tetrahydro-1H-indazol-3-yl)-5H-pyrrolo[2,3-b]pyrazine-7-carboxylic acid tert-butylamide], the IC50 was 4190 nM.
